This note sets out measurements from ChEMBL document CHEMBL1149870, “Synthesis and antibacterial activity of egonol derivatives” (2008).

SMILES strings stand for the structures. Converted amounts (≈) assume the structure as drawn. The source made the active and inactive calls. No cut-off for these calls is given here.

Assay type in all cases: functional
One assay concerns Bacillus subtilis. Briefly: Antibacterial activity against Bacillus subtilis by Muller Hilton broth method.
The next assay has as its system Escherichia coli. Briefly: Antibacterial activity against Escherichia coli by Muller Hilton broth method.
For another assay, the system named is Candida albicans. Briefly: Antifungal activity against Candida albicans by Muller Hilton broth method.
The test system of another assay is Staphylococcus aureus. Put plainly: Antibacterial activity against Staphylococcus aureus by Muller Hilton broth method.

One may read the MIC as the lowest concentration that inhibits growth of the organism. The low end stands for greater potency, the high end for weaker potency. In the case of `COc1cc(CCCC#N)cc2cc(-c3ccc4c(c3)OCO4)oc12`, the MIC in the assay on Bacillus subtilis, against Escherichia coli and in the assay on Staphylococcus aureus was 800 µg/mL (≈ 2390 µM) in each case. Besides, the outcome in the assay on Candida albicans was inactive.

With `COc1cc(CCCO)cc2cc(-c3ccc4c(c3)OCO4)oc12` [EGONOL], the MIC in the assay on Bacillus subtilis, against Escherichia coli, with Candida albicans and against Staphylococcus aureus was 800 µg/mL (≈ 2450 µM) throughout.

For `COc1cc(CCC=O)cc2cc(-c3ccc4c(c3)OCO4)oc12`, the MIC against Bacillus subtilis was determined as 256 µg/mL (≈ 789 µM); in the assay on Escherichia coli, 800 µg/mL (≈ 2470 µM); against Candida albicans, 128 µg/mL (≈ 395 µM); in the assay with Staphylococcus aureus, 64 µg/mL (≈ 197 µM).

Turning to `COc1cc(CCCCl)cc2cc(-c3ccc4c(c3)OCO4)oc12`, the MIC is 128 µg/mL (≈ 371 µM) in the assay with Bacillus subtilis, 256 µg/mL (≈ 742 µM) against Escherichia coli, 64 µg/mL (≈ 186 µM) in the assay with Candida albicans and 256 µg/mL (≈ 742 µM) with Staphylococcus aureus.

Consider `COc1cc(CCCBr)cc2cc(-c3ccc4c(c3)OCO4)oc12`, for which the MIC was 400 µg/mL (≈ 1030 µM) with Bacillus subtilis, 800 µg/mL (≈ 2060 µM) in the assay with Escherichia coli, 400 µg/mL (≈ 1030 µM) in the assay with Candida albicans and 800 µg/mL (≈ 2060 µM) in the assay on Staphylococcus aureus.

In the case of `COc1cc(CCCOCCCBr)cc2cc(-c3ccc4c(c3)OCO4)oc12`, the MIC with Bacillus subtilis is 256 µg/mL (≈ 572 µM); in the assay on Escherichia coli, 800 µg/mL (≈ 1790 µM); against Candida albicans, 800 µg/mL (≈ 1790 µM); with Staphylococcus aureus it was 256 µg/mL (≈ 572 µM).

As to `COc1cc(CCCI)cc2cc(-c3ccc4c(c3)OCO4)oc12`, the MIC against Bacillus subtilis, against Escherichia coli, against Candida albicans and in the assay with Staphylococcus aureus was 800 µg/mL (≈ 1830 µM) in each case.

For `COc1cc(CCCO)cc2c([N+](=O)[O-])c(-c3ccc4c(c3)OCO4)oc12`, the MIC against Bacillus subtilis and against Candida albicans was 800 µg/mL (≈ 2150 µM) throughout. Moreover, the outcome with Escherichia coli and in the assay on Staphylococcus aureus was inactive.

For the compound `COc1cc(CCCOC=O)cc2cc(-c3ccc4c(c3)OCO4)oc12`, the MIC against Bacillus subtilis, against Escherichia coli, against Candida albicans and with Staphylococcus aureus was 400 µg/mL (≈ 1130 µM) throughout.

As to `COc1c(Br)c(CCCO)cc2cc(-c3ccc4c(c3)OCO4)oc12`, the MIC against Bacillus subtilis, in the assay on Escherichia coli, against Candida albicans and in the assay on Staphylococcus aureus was 800 µg/mL (≈ 1970 µM) in each case.

Consider `COc1cc(CCCOC(=O)c2ccccc2)cc2cc(-c3ccc4c(c3)OCO4)oc12`, for which the MIC against Bacillus subtilis, against Escherichia coli, against Candida albicans and in the assay with Staphylococcus aureus was 800 µg/mL (≈ 1860 µM) in each case.
